Test system: HFD-fed C57BL/6J mice
Assay: Untargeted cortex LC-MS metabolomics
Type: in vivo
Details: cortex of HFD-fed mice
Procedure: Plasma and Cortex LC-MS Metabolomics. The left and right sides of the cortex were pooled and ground using liquid nitrogen. Cortex samples (approximately 30 mg) were extracted as previously described with slight modifications. Tissues were homogenized with 600 μL of cold 80% acetonitrile with 0.1% formic acid containing 0.2 μg/mL of dopamine-d4 (Sigma-Aldrich, St Louis, MO, USA) and 0.2 μg/mL of chlorpropamide (Sigma-Aldrich, St Louis, MO, USA) using a counter-top bullet blender for 2 min and centrifuged at 20 000 rpm for 10 minutes. Supernatants were transferred to high performance liquid chromatography (HPLC) vials for analysis.
LC-high-resolution mass spectrometry/MS. Data dependent acquisition in both negative and positive ion mode was conducted using a Shimadzu Nexera UPLC system coupled to an AB SCIEX TripleTOF 5600 mass spectrometer (AB SCIEX, Toronto, Canada). Chromatographic separation was conducted using an Inertsil Phenyl-3 column (4.6×150 mm, 100 Å, 5 μm; GL Sciences, Tokyo, Japan). Spray voltage was −4200 V for negative ion mode and 4500 V for positive ion mode acquisition. The injection volume was 3 μL. Metabolite identifications were performed using Progenesis QI software (V2.4.6911) with METLIN plugin V1.0.6499 (NonLinear Dynamics, United Kingdom). Progenesis QI was used for peak picking, retention time correction, data normalization, peak alignment, and metabolite annotations. Metabolites were detected in both ion modes; the one with the lowest coefficient of variation of the QC was kept.

COc1cc(O)c(CC=C(C)C)c(O)c1C(=O)/C=C/c1ccc(O)cc1 [XN, xanthohumol]
Ion intensities, Mean: 1,2-DIPALMITOYL-SN-GLYCEROL: 934.62
Ion intensities, Mean: 1-Arachidonoyl-glycerophosphoinositol: 645.87
Ion intensities, Mean: 1-Palmitoyl-2-linoleoyl PE: 1782.31
Ion intensities, Mean: 2-Pyrrolidinone: 1091.46
Ion intensities, Mean: 2′-DEOXYURIDINE 5′-MONOPHOSPHATE: 615.86
Ion intensities, Mean: 3-Methyl-L-histidine: 495.48
Ion intensities, Mean: 3-PHOSPHO-GLYCERIC ACID: 2094.74
Ion intensities, Mean: 5-Acetylamino-6-amino-3-methyluracil: 108.09
Ion intensities, Mean: 5-Methylcytidine: 6615.71
Ion intensities, Mean: 12-HYDROXYDODECANOIC-ACID: 2479.58
Ion intensities, Mean: 20-Hydroxy-PGE2: 9703.49
Ion intensities, Mean: 27-Hydroxycholesterol: 17882.79
Ion intensities, Mean: ADENOSINE: 42044.83
Ion intensities, Mean: ADENOSINE 5′-DIPHOSPHORIBOSE: 2010.85
Ion intensities, Mean: ADENOSINE 5′-MONOPHOSPHATE: 75745.39
Ion intensities, Mean: ADENOSINE-5′-DIPHOSPHOGLUCOSE: 924.21
Ion intensities, Mean: ADP: 1070.27
Ion intensities, Mean: AMINOADIPATE: 211.18
Ion intensities, Mean: ASCORBATE: 2138.35
Ion intensities, Mean: ASPARTATE: 1174.88
Ion intensities, Mean: Acetylcarnitine: 11173.39
Ion intensities, Mean: Acetylcholine: 1788.61
Ion intensities, Mean: Adenine: 1575.62
Ion intensities, Mean: Adenylosuccinate: 482.18
Ion intensities, Mean: Adenylsuccinic acid: 1871.57
Ion intensities, Mean: Arachidonic acid: 25496.26
Ion intensities, Mean: Arachidonic acid ethyl ester: 417.92
Ion intensities, Mean: Arginine: 1863.90
Ion intensities, Mean: Aspartic acid: 8381.28
Ion intensities, Mean: BILIVERDIN: 251.38
Ion intensities, Mean: CARNITINE: 11992.59
Ion intensities, Mean: CDP-Ethanolamine: 303.02
Ion intensities, Mean: CHENODEOXYCHOLATE: 5290.32
Ion intensities, Mean: CITRATE: 997.79
Ion intensities, Mean: CMP: 586.09
Ion intensities, Mean: Carnosine: 929.30
Ion intensities, Mean: Choline: 7326.72
Ion intensities, Mean: Creatine: 81660.56
Ion intensities, Mean: Cysteineglutathione disulfide: 1321.30
Ion intensities, Mean: Cytidine: 766.86
Ion intensities, Mean: Cytidine 2′,3′-cyclic phosphate: 419.79
Ion intensities, Mean: Cytidine diphosphate choline (CDPcholine): 2132.21
Ion intensities, Mean: D-GLUCOSE 6-PHOSPHATE: 54.37
Ion intensities, Mean: D-Glucaro-1,4-lactone: 1852.68
Ion intensities, Mean: D-RIBOSE 5-PHOSPHATE: 119.65
Ion intensities, Mean: DESMOSTEROL: 16777.33
Ion intensities, Mean: DIHYDROOROTATE: 129.45
Ion intensities, Mean: Deoxycytidine: 405.53
Ion intensities, Mean: Deoxyguanosine: 2552.08
Ion intensities, Mean: Docosahexaenoic acid: 3528.63
Ion intensities, Mean: Docosenamide: 22701.50
Ion intensities, Mean: Dodecanedioic acid: 332.32
Ion intensities, Mean: ERUCIC ACID: 114.42
Ion intensities, Mean: ETHANOLAMINE PHOSPHATE: 361.87
Ion intensities, Mean: Ergothioneine: 433.26
Ion intensities, Mean: Ethyl nicotinate: 74.78
Ion intensities, Mean: GLUTAMIC ACID: 7047.98
Ion intensities, Mean: GLUTAMINE: 18241.11
Ion intensities, Mean: GUANOSINE 5′-MONOPHOSPHATE: 2052.93
Ion intensities, Mean: Glutamate: 45779.91
Ion intensities, Mean: Glutathione: 194624.55
Ion intensities, Mean: Glycerophosphocholine: 104911.40
Ion intensities, Mean: Guanosine monophosphate: 482.20
Ion intensities, Mean: HEPTADECANOATE: 24.77
Ion intensities, Mean: HISTIDINE: 901.19
Ion intensities, Mean: Homocarnosine: 433.96
Ion intensities, Mean: Homoserine: 952.74
Ion intensities, Mean: Hydroxybutyric acid: 2561.64
Ion intensities, Mean: Hydroxyphenethylamine: 3489.46
Ion intensities, Mean: Hypoxanthine: 100.45
Ion intensities, Mean: Hypusine: 94.62
Ion intensities, Mean: ISOCITRIC ACID: 2099.31
Ion intensities, Mean: ISOLEUCINE: 1271.60
Ion intensities, Mean: Indoleacetaldehyde: 565.25
Ion intensities, Mean: Inosine: 1426.47
Ion intensities, Mean: Inosine 5′-monophosphate (IMP): 3551.74
Ion intensities, Mean: Isostearic acid: 2314.30
Ion intensities, Mean: L-2-Amino-5-hydroxypentanoicacid: 1771.05
Ion intensities, Mean: L-OLEOYL-RAC-GLYCEROL: 3415.51
Ion intensities, Mean: LACTATE: 3374.25
Ion intensities, Mean: LAUROYLCARNITINE: 384.69
Ion intensities, Mean: LEUKOTRIENE B4: 49.50
Ion intensities, Mean: LYSINE: 51.50
Ion intensities, Mean: Lathosterol: 23593.87
Ion intensities, Mean: Lipoamide: 70.91
Ion intensities, Mean: MALATE: 1271.76
Ion intensities, Mean: Methionine: 1365.89
Ion intensities, Mean: Methylthioadenosine: 2473.94
Ion intensities, Mean: Myristoylcarnitine: 1742.03
Ion intensities, Mean: N,N-dimethyl-Safingol: 638.46
Ion intensities, Mean: N-(1-Deoxy-1-fructosyl) serine: 3036.19
Ion intensities, Mean: N-ACETYL-L-ASPARTICACID: 24960.43
Ion intensities, Mean: N-ACETYLNEURAMINATE: 817.62
Ion intensities, Mean: N-Acetyl-Glutamic acid: 154.68
Ion intensities, Mean: N-Acetyl-L-alanine: 1997.71
Ion intensities, Mean: N-Acetylaspartylglutamic acid: 2179.47
Ion intensities, Mean: N-Acetylglutamine: 273.18
Ion intensities, Mean: N-Acetylisoputreanine: 99.54
Ion intensities, Mean: N-Acetyllactosamine: 308.43
Ion intensities, Mean: N-Linoleoyl GABA: 57.01
Ion intensities, Mean: N-Methyl-Glutamate: 2277.43
Ion intensities, Mean: N-a-Acetyl-Arginine: 175.03
Ion intensities, Mean: NAD: 532.29
Ion intensities, Mean: NE,NE,NE-TRIMETHYLLYSINE: 2830.12
Ion intensities, Mean: Niacinamide: 4607.66
Ion intensities, Mean: Nicotinamide adenine dinucleotide (NAD): 2094413
Ion intensities, Mean: O-Phosphoethanolamine: 497.23
Ion intensities, Mean: Octadecenoic acid: 202.97
Ion intensities, Mean: Oleamide: 4025.45
Ion intensities, Mean: Oxidized glutathione: 2115.40
Ion intensities, Mean: PALMITATE: 1472.32
Ion intensities, Mean: PALMITOLEIC ACID: 62.02
Ion intensities, Mean: PANTOTHENIC ACID: 442.74
Ion intensities, Mean: PETROSELINIC ACID: 220.71
Ion intensities, Mean: PHENYLALANINE: 2371.34
Ion intensities, Mean: PHENYLETHANOLAMINE: 1245.94
Ion intensities, Mean: Phenylpropionylglycine: 294.60
Ion intensities, Mean: Phosphocholine: 18574.78
Ion intensities, Mean: Phosphodimethyl-ethanolamine: 161.80
Ion intensities, Mean: Pipecolic acid: 422.43
Ion intensities, Mean: Propionylcarnitine: 571.28
Ion intensities, Mean: Pyridoxamine-5′-Phosphate: 377.92
Ion intensities, Mean: RAC-GLYCEROL-L-MYRISTATE: 293.55
Ion intensities, Mean: S-Adenosylhomocysteine: 397.04
Ion intensities, Mean: S-Adenosylmethionine: 11562.08
Ion intensities, Mean: SERINE: 355.32
Ion intensities, Mean: SUCCINATE: 362.22
Ion intensities, Mean: Spermic acid 1: 178.91
Ion intensities, Mean: Spermidine: 5406.36
Ion intensities, Mean: Sphinganine: 34.01
Ion intensities, Mean: Sphinganine 1-phosphate: 2568.50
Ion intensities, Mean: Sphingosine: 1322.46
Ion intensities, Mean: Stearoylglycerophosphoserine: 2006.21
Ion intensities, Mean: Succinyladenosine: 192.45
Ion intensities, Mean: TAURINE: 6070.22
Ion intensities, Mean: THEOPHYLLINE: 18.71
Ion intensities, Mean: TRYPTOPHAN: 1131.43
Ion intensities, Mean: Tetradecanedioic acid: 125.75
Ion intensities, Mean: Tetrahydrodeoxycortisol: 3344.70
Ion intensities, Mean: Threoninyl-Alanine: 227.23
Ion intensities, Mean: Tyrosine: 4311.01
Ion intensities, Mean: URIDINE: 1155.56
Ion intensities, Mean: URIDINE 5′-DIPHOSPHOGALACTOSE: 462.04
Ion intensities, Mean: URIDINE-5-MONOPHOSPHATE: 2103.27
Ion intensities, Mean: Undecanedicarboxylic acid: 236.12
Ion intensities, Mean: Uracil: 201.36
Ion intensities, Mean: Uridine 5′-diphosphate: 248.01
Ion intensities, Mean: Xanthine: 137.03
Ion intensities, Mean: cyclic GMP-AMP: 1495.60
Ion intensities, Mean: diethyltoluamide: 8.44
Ion intensities, Mean: docosa-hexaenoic acid: 3095.80
Ion intensities, Mean: hydroxyhexadecanoyl carnitine: 1430.92
Ion intensities, Mean: hydroxyvitamin D3: 16859.40
Ion intensities, Mean: sn-glycero-3-Phosphoethanolamine: 737.74

From patent US12534439B2, “Xanthohumol derivatives and methods for making and using” (Oregon State University, priority 2021, dated 2026)
